# Measured values taken from PubChem BioAssay (NCI).
#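 Grown in 96-well plates, cells were treated for 48 hours with each compound at five concentrations. Insufficient inhibition: endpoint recorded as highest concentration tested. Definition used: TGI = concentration required for complete inhibition of growth.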
# Tests used:
# Experiment in all cases: NCI tumour cell line growth inhibition, 48 h
# [1] = tested on: SK-OV-3 ovarian
# [2] = tested on: SN12C renal
# [3] = tested on: A498 renal
# [4] = tested on: SK-MEL-5 melanoma
# [5] = tested on: IGROV1 ovarian
# [6] = tested on: NCI-H522 lung
# [7] = tested on: M14 melanoma
# [8] = tested on: HCC-2998 colon
# [9] = tested on: NCI-H23 lung
# [10] = tested on: ACHN renal
# [11] = tested on: SW-620 colon
# [12] = tested on: OVCAR-4 ovarian
# [13] = tested on: COLO 205 colon
# [14] = tested on: OVCAR-5 ovarian
# [15] = tested on: OVCAR-8 ovarian
# [16] = tested on: A549 NSCLC
# [17] = tested on: SNB-75 CNS
# [18] = tested on: PC-3 prostate
# [19] = tested on: KM12 colon
# [20] = tested on: OVCAR-3 ovarian
# [21] = tested on: MCF7 breast
# [22] = tested on: T-47D breast
# [23] = tested on: SF-295 CNS
# [24] = tested on: K-562 leukemia
# [25] = tested on: HCT-116 colon
# [26] = tested on: U251 CNS
# [27] = tested on: UACC-62 melanoma
# [28] = tested on: NCI/ADR-RES ovarian
# [29] = tested on: RXF 393 renal
# [30] = tested on: BT-549 breast
# [31] = tested on: HOP-92 NSCLC
# [32] = tested on: DU-145 prostate
# [33] = tested on: SK-MEL-2 melanoma
# [34] = tested on: MDA-N
# [35] = tested on: NCI-H460 lung
# [36] = tested on: SNB-19 CNS
# [37] = tested on: HT29 colon
# [38] = tested on: MDA-MB-231 breast
# [39] = tested on: RPMI-8226 leukemia
# [40] = tested on: LOX IMVI melanoma
# [41] = tested on: SF-268 CNS
# [42] = tested on: MDA-MB-435
# [43] = tested on: HCT-15 colon
# [44] = tested on: TK-10 renal
# [45] = tested on: EKVX NSCLC
# [46] = tested on: CAKI-1 renal
# [47] = tested on: UO-31 renal
# [48] = tested on: 786-0 renal
# [49] = tested on: HOP-62 NSCLC
# [50] = tested on: SK-MEL-28 melanoma
# [51] = tested on: NCI-H226 lung
# [52] = tested on: MALME-3M melanoma
# [53] = tested on: HS 578T breast
# [54] = tested on: UACC-257 melanoma
# [55] = tested on: SF-539 CNS
# [56] = tested on: HL-60(TB) leukemia
# [57] = tested on: MOLT-4 leukemia
# [58] = tested on: CCRF-CEM leukemia
smiles,measurement,setting,value
Clc1ccc(CSc2ncnc3c2ncn3C2CCCCO2)cc1 (stereo not given),TGI,[1],55.6 µM
same,TGI,[2],38.7 µM
same,TGI,[3],31.9 µM
same,TGI,[4],22.9 µM
same,TGI,[5],> 100 µM
same,TGI,[6],33.7 µM
same,TGI,[7],31 µM
same,TGI,[8],38.1 µM
same,TGI,[9],64.8 µM
same,TGI,[10],29.8 µM
same,TGI,[11],> 100 µM
same,TGI,[12],> 100 µM
same,TGI,[13],56.9 µM
same,TGI,[14],> 100 µM
same,TGI,[15],71.5 µM
same,TGI,[16],> 100 µM
same,TGI,[17],58.1 µM
same,TGI,[18],74.7 µM
same,TGI,[19],46.9 µM
same,TGI,[20],32.5 µM
same,TGI,[21],83.7 µM
same,TGI,[22],57.8 µM
same,TGI,[23],36.7 µM
same,TGI,[24],66.1 µM
same,TGI,[25],53.9 µM
same,TGI,[26],44.9 µM
same,TGI,[27],30 µM
same,TGI,[28],63.2 µM
same,TGI,[29],80.2 µM
same,TGI,[30],68.2 µM
same,TGI,[31],89.2 µM
same,TGI,[32],> 100 µM
same,TGI,[33],32 µM
same,TGI,[34],43.8 µM
same,TGI,[35],36.7 µM
same,TGI,[36],> 100 µM
same,TGI,[37],35.5 µM
same,TGI,[38],86.3 µM
same,TGI,[39],39.4 µM
same,TGI,[40],36.3 µM
same,TGI,[41],77.4 µM
same,TGI,[42],38.1 µM
same,TGI,[43],> 100 µM
same,TGI,[44],60.4 µM
same,TGI,[45],50.1 µM
same,TGI,[46],> 100 µM
same,TGI,[47],4.36 µM
same,TGI,[48],56.2 µM
same,TGI,[49],45.7 µM
same,TGI,[50],48.8 µM
same,TGI,[51],76.7 µM
same,TGI,[52],38.4 µM
same,TGI,[53],76.4 µM
same,TGI,[54],24.9 µM
C/C(=N\NC1=NCCN1)c1cn(C2=NCCN2)nc1C,TGI,[1],> 100 µM
same,TGI,[2],> 100 µM
same,TGI,[3],> 100 µM
same,TGI,[4],> 100 µM
same,TGI,[5],> 100 µM
same,TGI,[6],> 100 µM
same,TGI,[7],> 100 µM
same,TGI,[8],> 100 µM
same,TGI,[9],> 100 µM
same,TGI,[10],> 100 µM
same,TGI,[11],> 100 µM
same,TGI,[12],> 100 µM
same,TGI,[13],> 100 µM
same,TGI,[14],> 100 µM
same,TGI,[15],> 100 µM
same,TGI,[16],> 100 µM
same,TGI,[17],> 100 µM
same,TGI,[18],> 100 µM
same,TGI,[19],> 100 µM
same,TGI,[20],> 100 µM
same,TGI,[21],> 100 µM
same,TGI,[22],> 100 µM
same,TGI,[23],> 100 µM
same,TGI,[24],> 100 µM
same,TGI,[25],> 100 µM
same,TGI,[26],> 100 µM
same,TGI,[27],> 100 µM
same,TGI,[28],> 100 µM
same,TGI,[29],> 100 µM
same,TGI,[30],> 100 µM
same,TGI,[31],> 100 µM
same,TGI,[32],> 100 µM
same,TGI,[33],> 100 µM
same,TGI,[34],> 100 µM
same,TGI,[35],> 100 µM
same,TGI,[36],> 100 µM
same,TGI,[37],> 100 µM
same,TGI,[38],> 100 µM
same,TGI,[39],> 100 µM
same,TGI,[41],> 100 µM
same,TGI,[42],> 100 µM
same,TGI,[43],> 100 µM
same,TGI,[44],> 100 µM
same,TGI,[45],> 100 µM
same,TGI,[46],> 100 µM
same,TGI,[47],> 100 µM
same,TGI,[48],> 100 µM
same,TGI,[49],> 100 µM
same,TGI,[50],> 100 µM
same,TGI,[51],> 100 µM
same,TGI,[52],> 100 µM
same,TGI,[55],> 100 µM
same,TGI,[53],> 100 µM
same,TGI,[54],> 100 µM
O=C(O)c1cccc2cccc(-c3c4ccc(=O)cc-4oc4cc(O)ccc34)c12,TGI,[1],> 100 µM
same,TGI,[2],> 100 µM
same,TGI,[3],> 100 µM
same,TGI,[4],> 100 µM
same,TGI,[5],> 100 µM
same,TGI,[6],> 100 µM
same,TGI,[7],> 100 µM
same,TGI,[8],> 100 µM
same,TGI,[9],> 100 µM
same,TGI,[10],> 100 µM
same,TGI,[11],> 100 µM
same,TGI,[12],> 100 µM
same,TGI,[13],> 100 µM
same,TGI,[14],> 100 µM
same,TGI,[15],> 100 µM
same,TGI,[16],> 100 µM
same,TGI,[56],> 100 µM
same,TGI,[17],> 100 µM
same,TGI,[18],> 100 µM
same,TGI,[19],> 100 µM
same,TGI,[20],54.1 µM
same,TGI,[21],> 100 µM
same,TGI,[22],> 100 µM
same,TGI,[23],> 100 µM
same,TGI,[24],> 100 µM
same,TGI,[25],> 100 µM
same,TGI,[26],> 100 µM
same,TGI,[27],> 100 µM
same,TGI,[28],> 100 µM
same,TGI,[29],> 100 µM
same,TGI,[30],> 100 µM
same,TGI,[32],> 100 µM
same,TGI,[33],> 100 µM
same,TGI,[34],> 100 µM
same,TGI,[35],> 100 µM
same,TGI,[36],> 100 µM
same,TGI,[37],> 100 µM
same,TGI,[38],> 100 µM
same,TGI,[39],> 100 µM
same,TGI,[40],> 100 µM
same,TGI,[41],> 100 µM
same,TGI,[42],> 100 µM
same,TGI,[57],> 100 µM
same,TGI,[43],> 100 µM
same,TGI,[44],> 100 µM
same,TGI,[45],> 100 µM
same,TGI,[46],> 100 µM
same,TGI,[47],> 100 µM
same,TGI,[49],37.2 µM
same,TGI,[50],> 100 µM
same,TGI,[58],> 100 µM
same,TGI,[52],> 100 µM
same,TGI,[55],> 100 µM
same,TGI,[53],> 100 µM
same,TGI,[54],> 100 µM
Cc1nn(C2OC(CO)C(O)C(F)C2O)c(=O)[nH]c1=O (stereo not given),TGI,[1],> 100 µM
same,TGI,[2],> 100 µM
same,TGI,[3],> 100 µM
same,TGI,[4],> 100 µM
same,TGI,[6],> 100 µM
same,TGI,[7],> 100 µM
same,TGI,[8],> 100 µM
same,TGI,[9],> 100 µM
same,TGI,[10],> 100 µM
same,TGI,[11],> 100 µM
same,TGI,[12],> 100 µM
same,TGI,[13],> 100 µM
same,TGI,[14],> 100 µM
same,TGI,[15],> 100 µM
same,TGI,[16],> 100 µM
same,TGI,[56],> 100 µM
same,TGI,[18],> 100 µM
same,TGI,[20],> 100 µM
same,TGI,[21],> 100 µM
same,TGI,[22],> 100 µM
same,TGI,[23],> 100 µM
same,TGI,[24],> 100 µM
same,TGI,[25],> 100 µM
same,TGI,[26],> 100 µM
same,TGI,[27],> 100 µM
same,TGI,[28],> 100 µM
same,TGI,[30],> 100 µM
same,TGI,[31],> 100 µM
same,TGI,[32],> 100 µM
same,TGI,[33],> 100 µM
same,TGI,[34],> 100 µM
same,TGI,[35],> 100 µM
same,TGI,[36],> 100 µM
same,TGI,[37],> 100 µM
same,TGI,[38],> 100 µM
same,TGI,[39],> 100 µM
same,TGI,[40],> 100 µM
same,TGI,[41],> 100 µM
same,TGI,[42],> 100 µM
same,TGI,[57],> 100 µM
same,TGI,[43],> 100 µM
same,TGI,[44],> 100 µM
same,TGI,[46],> 100 µM
same,TGI,[47],> 100 µM
same,TGI,[48],> 100 µM
same,TGI,[50],> 100 µM
same,TGI,[58],> 100 µM
same,TGI,[51],> 100 µM
same,TGI,[52],> 100 µM
same,TGI,[55],> 100 µM
same,TGI,[53],> 100 µM
same,TGI,[54],> 100 µM
CC(C)(C)C(=O)N(C(=S)OCc1ccccn1)c1ccccc1,TGI,[1],> 100 µM
same,TGI,[2],> 100 µM
same,TGI,[3],> 100 µM
same,TGI,[4],46.6 µM
same,TGI,[5],54.3 µM
same,TGI,[7],> 100 µM
same,TGI,[9],> 100 µM
same,TGI,[10],> 100 µM
same,TGI,[11],> 100 µM
same,TGI,[13],49.6 µM
same,TGI,[14],> 100 µM
same,TGI,[15],> 100 µM
same,TGI,[56],64.8 µM
same,TGI,[18],> 100 µM
same,TGI,[19],71.4 µM
same,TGI,[20],> 100 µM
same,TGI,[21],61.5 µM
same,TGI,[22],63.5 µM
same,TGI,[24],> 100 µM
same,TGI,[25],52.3 µM
same,TGI,[26],> 100 µM
same,TGI,[27],> 100 µM
same,TGI,[28],91.8 µM
same,TGI,[29],63.9 µM
same,TGI,[30],> 100 µM
same,TGI,[32],> 100 µM
same,TGI,[33],70.5 µM
same,TGI,[34],> 100 µM
same,TGI,[36],> 100 µM
same,TGI,[37],> 100 µM
same,TGI,[38],> 100 µM
same,TGI,[39],58.7 µM
same,TGI,[40],51.6 µM
same,TGI,[41],> 100 µM
same,TGI,[42],> 100 µM
same,TGI,[57],62.4 µM
same,TGI,[43],85.2 µM
same,TGI,[44],> 100 µM
same,TGI,[45],57.7 µM
same,TGI,[46],> 100 µM
same,TGI,[47],84.3 µM
same,TGI,[48],> 100 µM
same,TGI,[49],46.8 µM
same,TGI,[50],> 100 µM
same,TGI,[58],68 µM
same,TGI,[51],> 100 µM
same,TGI,[52],44.6 µM
same,TGI,[55],46.3 µM
same,TGI,[53],> 100 µM
same,TGI,[54],> 100 µM
